Key:
[1] = NOVARTIS: Cytotoxicity against human hepatocellular carcinoma cell line (Huh7); format: toxicity, cell-based, Huh-7; conditions: Huh7 cells (hepatocellular carcinoma cell line)
Plasmodium falciparum [2] = test: NOVARTIS: Inhibition of Plasmodium falciparum W2 (drug-resistant) proliferation in erythrocyte-based infection assay; format: functional, organism-based; conditions: Plasmodium falciparum, W2; read-out: EC50
Plasmodium falciparum [3] = test: NOVARTIS: Inhibition of Plasmodium falciparum 3D7 (drug-susceptible) proliferation in erythrocyte-based infection assay; format: functional, organism-based; conditions: Plasmodium falciparum, 3D7

SMILES	CC50 [1] [nM]	EC50 (Plasmodium falciparum [2]) [nM]	EC50 (Plasmodium falciparum [3]) [nM]
CCC(c1nc2ccccc2c(=O)n1-c1ccccc1OC)N(CCc1ccccc1)C(=O)c1cccc(C(F)(F)F)c1 (stereo unspecified)	> 10000	118	919
CC1(C)CC(=O)c2cc(-c3ccc(Br)cc3)n(-c3ccccc3F)c2C1	> 10000	> 1250	> 972
CCCCCc1ccc(C(=O)N(CCCC(C)Nc2cc(OC)cc3cccnc23)Cc2ccc(OC)c(OC)c2)cc1 (stereo unspecified)	5030	284	514
Cc1cccc(-c2cc(C(=O)NC3CCN(Cc4ccccc4)CC3)cc(-n3cnnn3)c2)c1	50100	570	372
COc1ccc(CCNc2ncnc3c2[nH]c2ccccc23)cc1	24900	401	299
COc1ccccc1C(=O)N1CCN(Cc2ccc3ccccc3c2)CC1	> 100000	4860	> 12500
CCOC(=O)C1=C(C)N/C(=C\c2cc(C)n(-c3ccc(C)cc3C)c2C)C1=O	> 10000	1740	> 1250
Cc1c[nH]c(CCNCc2ccc(OCC(O)CN(C)Cc3ccccc3)cc2)n1 (stereo unspecified)	54800	1190	1480
CCOc1ccc(N(CC)S(=O)(=O)c2cc(Br)cc3c2N(C(C)=O)CC3)cc1	> 100000	76.1	125
Cc1oc(-c2cccc(C(F)(F)F)c2)cc1C(=O)O	> 10000	267	> 887
CC(=O)N(C1=C(N2CCCC2)C(=O)c2ccccc2C1=O)c1ccc(F)c(F)c1	20200	174	407
O=C1CN(C(=O)COC(=O)c2ccccc2NCCc2ccc(F)cc2)c2ccccc2N1	> 10000	165	219
CCOC(=O)C1=C(C)NC2=C(C(=O)CC(C)(C)C2)C1c1ccc(Cl)cc1Cl (stereo unspecified)	66000	121	281
C(#Cc1ccccc1)CN(Cc1ccccn1)Cc1ccccn1	> 14100	300	1560
CCOc1ccc2c(c1)cc(CN(C(C)=O)C1CCCC1)c1nnnn12	> 10000	268	> 1250
Cc1ccc(NC2=C(N3CCCCC3)C(=O)c3ccccc3C2=O)cc1	18500	77.5	131
CC1CC(=O)NN=C1c1ccc(NC(=O)c2ccccc2)cc1 (stereo unspecified)	> 10000	270	305
CCN1C(=O)NC(c2cccc(NC(=O)Nc3cc(C(F)(F)F)cc(C(F)(F)F)c3)c2)C(C(=O)OC(C)C)=C1C (stereo unspecified)	35300	6010	8420
CC(=O)N(C1=C(N2CCCCC2)C(=O)c2ccccc2C1=O)c1ccc(F)c(F)c1	47700	94.7	238
CCCCCCC1CCC(O)(C(C)(O)C(=O)NC2C(=O)N3NCCCC3C(=O)N(O)C(COC)C(=O)NCC(=O)N3NCCCC3C(=O)N(O)C(C)C(=O)OC2C)OC1C (stereo unspecified)	197	124	219
CC(Oc1ccc(Cl)cc1Cl)c1nc(-c2ccc(NC(=O)c3ccco3)cc2)no1 (stereo unspecified)	35600	551	313
O=C(Nc1ccc(-n2cccn2)cc1)C1CCN(Cc2nc3c(s2)CCCC3)CC1	> 100000	894	1350
Oc1ccccc1-c1nc2sc(-c3ccccc3O)nc2s1	> 10000	467	> 989
CC(C)CCN1C(=O)N(CCN(C)C)C(=O)C12CCN(Cc1ccc(O)cc1)CC2	68400	123	740
COc1cccc(CN2CCN(C3CCCC(C)C3)CC2)c1OC (stereo unspecified)	> 100000	> 6700	> 12500
COc1ccc(OC)c(NC(=O)CSc2nc(NCc3ccc(Cl)cc3)c3ccccc3n2)c1	> 100000	> 11200	> 11200
CCOc1ccc(N2C(=O)C3C4CC(C(Br)C4Br)C3C2=O)cc1 (stereo unspecified)	> 72500	441	> 12500
